Experimental data published in PubChem BioAssay AID330 (DTP/NCI, 2004).
Values joined by “and” are separate entries in the source; they are usually repeats but may differ in a detail not shown here. Identical values can stand only once. Toxic doses and inconclusive results are not listed.

Test system: P388 leukemia ip, CD2F1 mice, survival T/C
Test: NCI In Vivo Anticancer Drug Screen. Data for tumor model P388 Leukemia (intraperitoneal) in CD2F1 (CDF1) mice
Conditions: endpoint: median survival time, higher = longer survival
Procedure, shortened: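 Mice carrying the transplanted tumor received test compound or vehicle. Survival was recorded in each group, and the value is the treated-group measurement divided by that of the vehicle-treated control group.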

[1] = dose: 60.0 mg/kg/injection, schedule: Q01DX005 (ip), vehicle: saline with Tween-80
[2] = dose: 120.0 mg/kg/injection, schedule: Q01DX005 (ip), vehicle: saline with Tween-80
[3] = dose: 240.0 mg/kg/injection, schedule: Q01DX005 (ip), vehicle: saline with Tween-80
[4] = dose: 50.0 mg/kg/injection, schedule: Q01DX009 (ip), vehicle: Klucel (hydroxypropylcellulose) (HPC)
[5] = dose: 100.0 mg/kg/injection, schedule: Q01DX009 (ip), vehicle: Klucel (hydroxypropylcellulose) (HPC)
[6] = dose: 200.0 mg/kg/injection, schedule: Q01DX009 (ip), vehicle: Klucel (hydroxypropylcellulose) (HPC)

C=C1[C@H]2C[C@H]2[C@]2(C)C=C3OC(=O)C(C)=C3C[C@@H]12
T/C (dose: 5.5 mg/kg/injection, schedule: Q01DX005 (ip), vehicle: Klucel (hydroxypropylcellulose) (HPC)): 94 % of control
T/C (dose: 11.0 mg/kg/injection, schedule: Q01DX005 (ip), vehicle: Klucel (hydroxypropylcellulose) (HPC)): 98 % of control
T/C (dose: 22.0 mg/kg/injection, schedule: Q01DX005 (ip), vehicle: Klucel (hydroxypropylcellulose) (HPC)): 100 % of control
T/C (dose: 44.0 mg/kg/injection, schedule: Q01DX005 (ip), vehicle: Klucel (hydroxypropylcellulose) (HPC)): 94 % of control
T/C (dose: 80.0 mg/kg/injection, schedule: Q01DX005 (ip), vehicle: Klucel (hydroxypropylcellulose) (HPC)): 91 % of control

N#Cc1ccccc1NC(=O)Nc1ccc(Cl)cc1Cl
T/C (dose: 0.46 mg/kg/injection, schedule: Q01DX005 (ip), vehicle: saline with Tween-80): 94 % of control
T/C (dose: 0.93 mg/kg/injection, schedule: Q01DX005 (ip), vehicle: saline with Tween-80): 97 % of control
T/C (dose: 1.87 mg/kg/injection, schedule: Q01DX005 (ip), vehicle: saline with Tween-80): 99 % of control
T/C [1]: 91 % of control and 92 % of control
T/C [2]: 88 % of control
T/C [3]: 98 % of control

O=S(=O)(CCCl)c1ccc2ccccc2c1
T/C (dose: 12.5 mg/kg/injection, schedule: Q01DX009 (ip), vehicle: Klucel (hydroxypropylcellulose) (HPC)): 118 % of control and 90 % of control
T/C (dose: 25.0 mg/kg/injection, schedule: Q01DX009 (ip), vehicle: Klucel (hydroxypropylcellulose) (HPC)): 114 % of control
T/C [4]: 106 % of control and 117 % of control

CCCCCCOC(=O)C(N)Cc1ccc(N(CCCl)CCCl)cc1 (stereo unspecified)
T/C (dose: 1.28 mg/kg/injection, schedule: Q01DX009 (ip), vehicle: saline): 245 % of control
T/C (dose: 2.55 mg/kg/injection, schedule: Q01DX009 (ip), vehicle: saline): 322 % of control
T/C (dose: 3.2 mg/kg/injection, schedule: Q03HX008 (ip), vehicle: saline): 165 % of control
T/C (dose: 5.1 mg/kg/injection, schedule: Q01DX009 (ip), vehicle: saline): 118 % of control
T/C (dose: 6.4 mg/kg/injection, schedule: Q03HX008 (ip), vehicle: saline): 180 % of control
T/C (dose: 10.2 mg/kg/injection, schedule: Q01DX009 (ip), vehicle: saline): 86 % of control
T/C (dose: 12.8 mg/kg/injection, schedule: Q03HX008 (ip), vehicle: saline): 295 % of control
T/C (dose: 25.5 mg/kg/injection, schedule: Q03HX008 (ip), vehicle: saline): 600 % of control
T/C (dose: 51.0 mg/kg/injection, schedule: Q03HX008 (ip), vehicle: saline): 600 % of control

CC1=CCCCN1C(=O)CC1C=CCS1(=O)=O (stereo unspecified)
T/C (dose: 25.0 mg/kg/injection, schedule: Q01DX005 (ip), vehicle: saline with Tween-80): 100 % of control
T/C (dose: 50.0 mg/kg/injection, schedule: Q01DX005 (ip), vehicle: saline with Tween-80): 103 % of control
T/C (dose: 100.0 mg/kg/injection, schedule: Q01DX005 (ip), vehicle: saline with Tween-80): 103 % of control

CSc1nccc(=O)n1-c1ccccc1C
T/C (dose: 100.0 mg/kg/injection, schedule: Q04DX002 (ip), vehicle: Klucel (hydroxypropylcellulose) (HPC)): 100 % of control
T/C (dose: 200.0 mg/kg/injection, schedule: Q04DX002 (ip), vehicle: Klucel (hydroxypropylcellulose) (HPC)): 102 % of control

CC(C)(C(=O)O)C(Nc1ncnc2c1ncn2C1OC(CO)C(O)C1O)C(=O)O (stereo unspecified)
T/C (dose: 100.0 mg/kg/injection, schedule: Q04DX003 (ip), vehicle: saline): 100 % of control
T/C (dose: 200.0 mg/kg/injection, schedule: Q04DX003 (ip), vehicle: saline): 106 % of control

Oc1ccc(Nc2ccnc3cc(Cl)ccc23)cc1CN(CCCl)CCCl
T/C (dose: 0.16 mg/kg/injection, schedule: Q01DX009 (ip), vehicle: saline): 119 % of control
T/C (dose: 0.31 mg/kg/injection, schedule: Q01DX009 (ip), vehicle: saline): 123 % of control
T/C (dose: 0.63 mg/kg/injection, schedule: Q01DX009 (ip), vehicle: saline): 150 % of control
T/C (dose: 1.25 mg/kg/injection, schedule: Q01DX009 (ip), vehicle: saline): 101 % of control
T/C (dose: 2.5 mg/kg/injection, schedule: Q01DX009 (ip), vehicle: saline): 153 % of control and 156 % of control

COc1cc(N(CCCl)CCCl)c(OC)cc1C=Nc1ccccc1C(=O)O
T/C (dose: 3.12 mg/kg/injection, schedule: Q01DX009 (ip), vehicle: suspension in saline): 114 % of control
T/C (dose: 25.0 mg/kg/injection, schedule: Q01DX009 (ip), vehicle: saline): 182 % of control

CC(C)(C)SSC(=S)C(c1ccccc1)c1ccccc1
T/C (dose: 50.0 mg/kg/injection, schedule: Q01DX005 (ip), vehicle: saline + Tween-80 + alcohol): 105 % of control
T/C (dose: 100.0 mg/kg/injection, schedule: Q01DX005 (ip), vehicle: saline + Tween-80 + alcohol): 107 % of control
T/C (dose: 200.0 mg/kg/injection, schedule: Q01DX005 (ip), vehicle: saline + Tween-80 + alcohol): 96 % of control

COC(=O)[C@@H]1CCCN1C(=O)C(=O)N1CCC[C@H]1C(=O)OC
T/C (dose: 100.0 mg/kg/injection, schedule: Q01DX001 (ip), vehicle: saline with Tween-80): 108 % of control
T/C (dose: 200.0 mg/kg/injection, schedule: Q01DX001 (ip), vehicle: saline with Tween-80): 103 % of control
T/C (dose: 400.0 mg/kg/injection, schedule: Q01DX001 (ip), vehicle: saline with Tween-80): 103 % of control

CCOC(=O)C1=C(C(=O)c2ccccc2)C(c2ccc(Cl)cc2Cl)C(C(=O)c2ccccc2)=C(C(=O)OCC)N1
T/C [1]: 93 % of control
T/C [2]: 90 % of control

C[N+](C)(C)CC(=O)NNC(=O)CCn1[nH]c(=O)c(Cl)c(Cl)c1=O
T/C [1]: 104 % of control
T/C [2]: 99 % of control
T/C [3]: 97 % of control

CN1CCN=C1c1ccc(NC(=O)c2ccc(C(=O)Nc3ccc(C4=NCCN4C)cc3)cc2)cc1
T/C (dose: 0.4 mg/kg/injection, schedule: Q01DX009 (ip), vehicle: saline with Tween-80): 108 % of control
T/C (dose: 3.0 mg/kg/injection, schedule: Q01DX009 (ip), vehicle: saline with Tween-80): 150 % of control
T/C (dose: 4.0 mg/kg/injection, schedule: Q01DX009 (ip), vehicle: saline): 166 % of control
T/C (dose: 6.0 mg/kg/injection, schedule: Q01DX009 (ip), vehicle: saline with Tween-80): 204 % of control
T/C (dose: 6.0 mg/kg/injection, schedule: Q01DX009 (ip), vehicle: saline): 187 % of control
T/C (dose: 6.25 mg/kg/injection, schedule: Q04DX003 (ip), vehicle: saline with Tween-80): 118 % of control
T/C (dose: 9.0 mg/kg/injection, schedule: Q01DX009 (ip), vehicle: saline): 191 % of control

Clc1ccccc1CN1COc2c(ccc3cccnc23)C1
T/C (dose: 100.0 mg/kg/injection, schedule: Q04DX003 (ip), vehicle: Klucel (hydroxypropylcellulose) (HPC)): 103 % of control
T/C (dose: 200.0 mg/kg/injection, schedule: Q04DX003 (ip), vehicle: Klucel (hydroxypropylcellulose) (HPC)): 100 % of control
T/C (dose: 400.0 mg/kg/injection, schedule: Q04DX003 (ip), vehicle: Klucel (hydroxypropylcellulose) (HPC)): 100 % of control

COC(=O)c1cc(-c2ccc(Cl)cc2)n2c(N)nnc2n1
T/C [1]: 100 % of control
T/C [2]: 100 % of control
T/C [3]: 104 % of control

COc1cc(N=Nc2cccc(C(=O)O)c2)ccc1N(CCCl)CCCl
T/C (dose: 6.25 mg/kg/injection, schedule: Q01DX009 (ip), vehicle: saline with Tween-80): 106 % of control
T/C (dose: 12.5 mg/kg/injection, schedule: Q01DX009 (ip), vehicle: saline with Tween-80): 121 % of control
T/C (dose: 25.0 mg/kg/injection, schedule: Q01DX009 (ip), vehicle: saline with Tween-80): 152 % of control

O=C(NCCCCCCNC(=O)C1CCCN1C(=O)OCc1ccccc1)C1CCCN1C(=O)OCc1ccccc1 (stereo unspecified)
T/C (dose: 60.0 mg/kg/injection, schedule: Q01DX005 (ip), vehicle: Klucel (hydroxypropylcellulose) (HPC)): 100 % of control
T/C (dose: 120.0 mg/kg/injection, schedule: Q01DX005 (ip), vehicle: Klucel (hydroxypropylcellulose) (HPC)): 98 % of control
T/C (dose: 240.0 mg/kg/injection, schedule: Q01DX005 (ip), vehicle: Klucel (hydroxypropylcellulose) (HPC)): 100 % of control

O=C(Oc1ccccc1)c1ccc(C(=O)Oc2ccccc2)cc1
T/C [4]: 108 % of control
T/C [5]: 102 % of control
T/C [6]: 101 % of control

CC(=O)C1=C(c2ccccc2)NC(=O)NC1c1ccco1 (stereo unspecified)
T/C (dose: 100.0 mg/kg/injection, schedule: Q04DX003 (ip), vehicle: saline with Tween-80): 95 % of control
T/C (dose: 200.0 mg/kg/injection, schedule: Q04DX003 (ip), vehicle: saline with Tween-80): 95 % of control
T/C (dose: 400.0 mg/kg/injection, schedule: Q04DX003 (ip), vehicle: saline with Tween-80): 90 % of control

O=C(CCSc1nc(-c2ccccc2)c(-c2ccccc2)o1)N1CCCCC1
T/C [4]: 101 % of control
T/C [5]: 101 % of control
T/C [6]: 117 % of control
